Data as given in article PMC4979060, “Structural basis of metallo-β-lactamase, serine-β-lactamase and penicillin-binding protein inhibition by cyclic boronates” (Nature Communications, 2016).
In brackets after ≈: the same amount, converted by molar mass. Like-named read-outs stand apart in the source and are kept apart here.

Experiments:
[1] = test system: K. pneumoniae IR8; experiment: microbe, parasite or virus in culture; format: cell-based; details: Klebsiella pneumoniae, K. pneumoniae IR8
Excerpt: (§1) Bacterial strains: E. coli ATCC 25922 (ref. [35]) and K. pneumoniae NCTC 5055 (ref. [36]) were used as reference strains. K. pneumoniae Ecl8 (ref. [16]) and its ramR knock-out[37] were used as previously described. K. pneumoniae strain IR8 (ref. [40]), and E. coli strains IR10 and IR60 (ref. [17]) were generous gifts of Prof. T.R. Walsh. Plasmid pSU18:NDM-1 contains the complete blaNDM-1 open reading frame, together with its promoter, cloned into plasmid pSU18 (ref. [41]). The recombinant plasmid was made by PCR amplifying the blaNDM-1 gene and surrounding sequences from E. coli IR10 with primers NDM1F 5′- […] -3′ and NDM1R 5′- GGCGATGACAGCATCATC -3′, TA cloning the amplicon into pCR2.1 TOPO (Invitrogen) and subcloning into pSU18 using BamHI and XbaI.
(§2) MIC values were determined by broth microdilution, in triplicate, in cation-adjusted Mueller Hinton broth (Sigma) according to the Clinical Laboratory Standards Institute (CLSI) guidelines. Experiments were carried out in microtitre plates (Corning) containing the medium plus meropenem (Sequoia Research Products, Pangbourne, UK) and/or inhibitor 2 as appropriate. Chloramphenicol (20 μg ml^−1) was included in assays of strains (K. pneumoniae Ecl8 and derivative) that carried pSU18 plasmids or derivatives (pSU18:NDM-1) to ensure maintenance of plasmids throughout. Inhibitor 2 was dissolved in DMSO to 100 mg ml^−1 and diluted in broth. The final concentration of DMSO in the assays was kept constant at 0.01% (experiments using 10 μg ml^−1 inhibitor) or 0.03% (experiments using 25 μg ml^−1 inhibitor). Plates were incubated overnight at 37 °C for 18–24 h and absorbance at 600 nm read using a Polarstar Omega (BMG LabTech) plate reader.

[2] = test system: K. pneumoniae Ecl8 pSU18:NDM-1; experiment: MIC by broth microdilution and checkerboard; format: cell-based; details: for MIC: Klebsiella pneumoniae
Excerpt: as §1, §2

[3] = test system: E. coli IR10; experiment: MIC by broth microdilution; format: cell-based; details: Escherichia coli
Excerpt: as §1, §2

[4] = test system: K. pneumoniae Ecl8 pSU18; experiment: MIC by broth microdilution; format: cell-based; details: Klebsiella pneumoniae
Excerpt: as §1, §2

[5] = test system: E. coli IR60; experiment: MIC by broth microdilution; format: cell-based; details: Escherichia coli
Excerpt: as §1, §2

[6] = test system: K pneumoniae Ecl8 ΔramR pSU18; experiment: MIC by broth microdilution; format: cell-based; details: Klebsiella pneumoniae
Excerpt: as §1, §2

[7] = test system: K pneumoniae Ecl8 ΔramR pSU18:NDM-1; experiment: MIC by broth microdilution; format: cell-based; details: Ecl8 ΔramR pSU18:NDM-1; for MIC: Klebsiella pneumoniae; for Meropenem MIC (25 μg ml^−1 2): with 25 μg ml^−1 2
Excerpt: as §1, §2

[8] = molecular target: T1, CphA (Aeromonas hydrophila, UniProt P26918); experiment: B2 MBL inhibition assay (meropenem substrate), CphA; format: biochemical, Aeromonas hydrophilia
T1 construct: made in house; host or cells: E. coli
T1 sequence (P26918 28-254): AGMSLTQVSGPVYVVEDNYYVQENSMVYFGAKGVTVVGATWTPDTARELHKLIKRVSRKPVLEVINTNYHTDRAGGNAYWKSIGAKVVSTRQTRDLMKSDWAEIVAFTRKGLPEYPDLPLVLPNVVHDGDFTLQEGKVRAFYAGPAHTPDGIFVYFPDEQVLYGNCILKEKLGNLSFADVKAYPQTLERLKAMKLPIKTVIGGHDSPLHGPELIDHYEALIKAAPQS
Experimental: (§3) Kinetic and inhibition analyses, and ^19F NMR studies[10] against bacterial β-lactamases were performed as described. The FC-5 cephalosporin[9] was used as substrate for BcII, VIM-2, IMP-1, NDM-1, SPM-1, TEM-1 and OXA-10, meropenem[28] for CphA and nitrocefin[34] for PBP 3 and PBP 5.
(§4) In brief IC50 values were determined by preincubation of the appropriate amount of enzyme with the cyclic boronates in the assay buffers for 10 min at room temperature prior to the initiation of the assay by the addition of the appropriate substrate. The enzyme concentrations used are the following: 1 nM BcII, 100 nM VIM-2, 10 nM IMP-1, 10 nM NDM-1, 1 nM SPM-1, 1 nM TEM-1, 1 nM OXA-10, 2.5 nM CphA, 4 μM PBP 3 and 5 μM PBP 5; note that the final concentrations are stated. The assay buffers used are the following: 50 mM HEPES, pH 7.2 supplemented with 1 μg BSA, 1 μg ZnSO4 and 0.01% Triton for BcII, VIM-2, IMP-1, NDM-1 and SPM-1, 15 mM MES, pH 6.5 for CphA, 50 mM HEPES, pH 7.2 supplemented with 200 mM NaCl and 0.01% Triton 100 for TEM-1, 100 mM sodium phosphate, pH 7.2 supplemented with 50 mM NaHCO3 and 0.01% Triton 100 for OXA-10 and 50 mM HEPES, pH 7.2 supplemented with 200 mM NaCl and 0.01% Triton 100 for PBP 3 and PBP 5. The amount of substrates used is the following: 5 μM for BcII, VIM-2, IMP-1, NDM-1 and SPM-1, 10 μM for TEM-1 and OXA-10, 125 μM for CphA and 25 μM for PBP 3 and PBP 5; note that the final concentrations are stated.
(§5) The experiments were performed using a PHERAstar FS microplate reader (BMG Labtech) at room temperature (24–25 °C). All enzymes and inhibitors were prepared in the specific assay buffer. The kinetic values in this study are the means from at least three independent measurements; at least nine different concentrations of the inhibitor were used to determine the kinetic parameters (IC50). The IC50 values were determined using the software package Graph Prism 5.

[9] = molecular target: SPM-1 (Pseudomonas aeruginosa, UniProt Q8G9Q0); experiment: Fluorogenic β-lactamase inhibition assay (FC-5 substrate), SPM-1; format: biochemical
Chain of SPM-1 (Q8G9Q0 entry or part of it): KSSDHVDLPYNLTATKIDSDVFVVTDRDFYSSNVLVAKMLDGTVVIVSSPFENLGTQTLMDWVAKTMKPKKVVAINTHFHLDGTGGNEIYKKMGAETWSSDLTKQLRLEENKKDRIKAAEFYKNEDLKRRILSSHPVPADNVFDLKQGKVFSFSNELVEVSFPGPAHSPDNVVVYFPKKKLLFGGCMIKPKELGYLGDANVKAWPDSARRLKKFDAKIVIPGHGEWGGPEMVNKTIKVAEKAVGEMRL
Experimental: as §3, §4, §5

[10] = molecular target: T2, VIM-2 (Escherichia coli, UniProt Q5U7L7); experiment: Fluorogenic β-lactamase inhibition assay (FC-5 substrate), VIM-2; format: biochemical; details: 10 min preincubation
T2 construct: made in house; host or cells: E. coli
Experimental: as §3, §4, §5

[11] = molecular target: T3, PBP 3 (Pseudomonas aeruginosa, UniProt G3XD46); experiment: PBP inhibition assay (nitrocefin substrate), PBP 3; format: biochemical; details: NI = no inhibition at 100 μM, read-out: IC50 (μM)/pIC50 (converted)
T3 construct: made in house; host or cells: E. coli
T3 sequence (G3XD46 whole entry): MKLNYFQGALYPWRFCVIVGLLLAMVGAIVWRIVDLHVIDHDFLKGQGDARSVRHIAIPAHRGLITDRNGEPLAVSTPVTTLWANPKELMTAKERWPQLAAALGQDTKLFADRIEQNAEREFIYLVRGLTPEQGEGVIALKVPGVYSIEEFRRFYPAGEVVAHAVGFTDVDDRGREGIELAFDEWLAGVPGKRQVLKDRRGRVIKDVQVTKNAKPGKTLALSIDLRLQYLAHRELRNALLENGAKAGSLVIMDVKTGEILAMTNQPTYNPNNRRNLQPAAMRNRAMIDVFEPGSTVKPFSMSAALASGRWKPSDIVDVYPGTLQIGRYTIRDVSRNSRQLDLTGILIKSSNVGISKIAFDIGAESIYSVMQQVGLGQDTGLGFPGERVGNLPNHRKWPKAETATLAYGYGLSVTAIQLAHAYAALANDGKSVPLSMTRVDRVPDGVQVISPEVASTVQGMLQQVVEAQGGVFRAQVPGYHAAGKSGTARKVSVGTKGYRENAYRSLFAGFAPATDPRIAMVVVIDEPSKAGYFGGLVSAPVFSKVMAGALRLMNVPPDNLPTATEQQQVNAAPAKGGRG
Experimental: as §3, §4, §5

[12] = molecular target: T4, TEM-1 (Escherichia coli, UniProt P62593); experiment: Fluorogenic β-lactamase inhibition assay (FC-5 substrate), TEM-1; format: biochemical
T4 construct: made in house; host or cells: E. coli
T4 sequence (P62593 24-286 limits assumed): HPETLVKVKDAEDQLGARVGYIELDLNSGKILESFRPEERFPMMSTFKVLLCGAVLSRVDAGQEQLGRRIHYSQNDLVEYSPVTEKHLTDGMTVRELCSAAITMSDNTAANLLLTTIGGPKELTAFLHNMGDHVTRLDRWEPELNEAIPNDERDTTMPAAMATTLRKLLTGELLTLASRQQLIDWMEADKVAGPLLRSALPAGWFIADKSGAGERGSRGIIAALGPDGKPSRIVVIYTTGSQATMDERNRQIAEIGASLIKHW
Experimental: as §3, §4, §5

[13] = molecular target: T5, BcII (Bacillus cereus, UniProt P04190); experiment: Fluorogenic β-lactamase inhibition assay (FC-5 substrate), BcII; format: biochemical
T5 construct: made in house; host or cells: E. coli
T5 sequence (P04190 31-257): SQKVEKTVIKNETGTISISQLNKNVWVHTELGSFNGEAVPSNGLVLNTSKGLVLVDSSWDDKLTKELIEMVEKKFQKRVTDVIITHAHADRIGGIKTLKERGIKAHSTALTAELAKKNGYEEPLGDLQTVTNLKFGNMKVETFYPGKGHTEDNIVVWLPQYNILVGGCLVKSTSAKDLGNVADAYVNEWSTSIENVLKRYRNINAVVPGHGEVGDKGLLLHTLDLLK
Experimental: as §3, §4, §5

[14] = molecular target: T6, OXA-10 (Pseudomonas aeruginosa, UniProt P14489); experiment: Fluorogenic β-lactamase inhibition assay (FC-5 substrate), OXA-10; format: biochemical
T6 construct: made in house; host or cells: E. coli
T6 sequence (P14489 20-266, species assumed): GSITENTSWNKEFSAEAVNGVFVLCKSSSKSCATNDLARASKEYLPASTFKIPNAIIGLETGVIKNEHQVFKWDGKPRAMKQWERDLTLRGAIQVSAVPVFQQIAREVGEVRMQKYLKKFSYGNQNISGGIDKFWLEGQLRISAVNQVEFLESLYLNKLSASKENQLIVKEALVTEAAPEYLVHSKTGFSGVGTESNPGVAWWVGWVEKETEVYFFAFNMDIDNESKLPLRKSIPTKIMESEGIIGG
Experimental: as §3, §4, §5

`C[C@@H](O)[C@H]1C(=O)N2C(C(=O)O)=C(S[C@@H]3CN[C@H](C(=O)N(C)C)C3)[C@H](C)[C@H]12` [Meropenem, meropenem] showed an MIC ([1]; meropenem alone, read-out: Meropenem MIC) of 128 µg/mL (≈ 334 µM), an MIC ([1]; with 10 μg ml^−1 2, read-out: Meropenem MIC (10 μg ml^−1 2)) of 32 µg/mL (≈ 83.4 µM) and an MIC ([1]; with 25 μg ml^−1 2, read-out: Meropenem MIC (25 μg ml^−1 2)) of 16 µg/mL (≈ 41.7 µM). For the same compound, the MIC ([2]; read-out: Meropenem MIC (10 μg ml^−1 2), with 10 μg ml^−1 2, Ecl8 pSU18:NDM-1) was 8 µg/mL, the MIC ([2]; read-out: Meropenem MIC (25 μg ml^−1 2), with 25 μg ml^−1 2, Ecl8 pSU18:NDM-1) was < 8 µg/mL and the MIC ([2]; read-out: Meropenem MIC, checkerboard, 2 at 0 μg mL-1) was 128 µg/mL. For the same compound, the MIC ([2]; read-out: Meropenem MIC, checkerboard, 2 at 0.5 μg mL-1) was 64 µg/mL, the MIC ([2]; read-out: Meropenem MIC, checkerboard, 2 at 1 μg mL-1) was 32 µg/mL and the MIC ([2]; read-out: Meropenem MIC, checkerboard, 2 at 2 μg mL-1) was 32 µg/mL. It also gave an MIC ([2]; read-out: Meropenem MIC, checkerboard, 2 at 4 μg mL-1) of 16 µg/mL, an MIC ([2]; read-out: Meropenem MIC, checkerboard, 2 at 8 μg mL-1) of 8 µg/mL and an MIC ([2]; read-out: Meropenem MIC, checkerboard, 2 at 16 μg mL-1) of 4 µg/mL. For the same compound, the MIC ([2]; read-out: Meropenem MIC, checkerboard, 2 at 32 μg mL-1) was 2 µg/mL, the MIC ([2]; read-out: Meropenem MIC, checkerboard, 2 at 64 μg mL-1) was ≤ 1 µg/mL and the MIC ([2]; read-out: Meropenem MIC, meropenem alone, Ecl8 pSU18:NDM-1) was > 128 µg/mL. The “Meropenem MIC (25 μg ml^−1 2)” value ([2]; with 25 μg ml^−1 2, Ecl8 pSU18:NDM-1) was 4 µg/mL, the MIC ([3]; IR10, read-out: Meropenem MIC) was 128 µg/mL (≈ 334 µM) and the MIC ([3]; IR10, read-out: Meropenem MIC (10 μg ml^−1 2)) was 8 µg/mL (≈ 20.9 µM). For the same compound, the MIC ([3]; IR10, read-out: Meropenem MIC (25 μg ml^−1 2)) was 2 µg/mL (≈ 5.22 µM), the MIC ([4]; ECL8PSU18, read-out: Meropenem MIC) was ≤ 0.25 µg/mL and the MIC ([4]; ECL8PSU18, read-out: Meropenem MIC (10 μg ml^−1 2)) was ≤ 0.25 µg/mL. For the same compound, the MIC ([4]; ECL8PSU18, read-out: Meropenem MIC (25 μg ml^−1 2)) was ≤ 0.25 µg/mL, the MIC ([5]; IR60, read-out: Meropenem MIC) was 64 µg/mL (≈ 167 µM) and the MIC ([5]; IR60, read-out: Meropenem MIC (10 μg ml^−1 2)) was 16 µg/mL (≈ 41.7 µM). The MIC ([5]; IR60, read-out: Meropenem MIC (25 μg ml^−1 2)) was 16 µg/mL (≈ 41.7 µM), the MIC ([6]; read-out: Meropenem MIC) was ≤ 0.25 µg/mL and the MIC ([6]; read-out: Meropenem MIC (10 μg ml^−1 2)) was ≤ 0.25 µg/mL. The MIC ([6]; read-out: Meropenem MIC (25 μg ml^−1 2)) was ≤ 0.25 µg/mL, the MIC ([7]; read-out: Meropenem MIC (10 μg ml^−1 2), with 10 μg ml^−1 2) was 16 µg/mL (≈ 41.7 µM) and the MIC ([7]; read-out: Meropenem MIC, meropenem alone) was > 128 µg/mL. For the same compound, the “Meropenem MIC (25 μg ml^−1 2)” value [7] was 2 µg/mL and the “Meropenem MIC (25 μg ml^−1 2)” value ([7]; listed as meropenem) was < 8 µg/mL.
With `NCCNCc1ccc(C(=O)N[C@H]2Cc3cccc(C(=O)O)c3O[B-]2(O)O)cc1` [compound 5] the pIC50 [8] was > 4, the IC50 ([8]; 10 min preincubation) was > 100 µM and the pIC50 [9] was 4.4. The IC50 ([9]; 10 min preincubation) was 36.3 µM, the IC50 [10] was 0.002 µM and the IC50 [11] was > 100 µM. It also gave a pIC50 [12] of 8.1, an IC50 ([12]; 10 min preincubation) of 0.006 µM and a pIC50 [13] of 5.9. For the same compound, the IC50 ([13]; 10 min preincubation) was 1.14 µM, the pIC50 [14] was 4.9 and the IC50 ([14]; 10 min preincubation) was 12.7 µM.
